Reference: patent publication US10729785B2, “Particles comprising protamine and RNA in combination with endosome destabilizing agents” (BioNTech SE, priority 2014, dated 2020)

Test system: fresh human red blood cells
Experiment: Validation of EDA: lysis of red blood cells at acidic pH (OD 405 nm of supernatant as surrogate of hemoglobin content)
Type: cell-based
Conditions: pH below 6, 7 hours; for damage of red blood cells / destabilization of cell membranes (OD 405 nm, hemoglobin content): 6 micrograms of peptide, 3 million human red blood cells in PBS, 37° C.

| Sequence | damage of red blood cells / destabilization of cell membranes (OD 405 nm, hemoglobin content) | relative efficacy in damaging red blood cells (peptide 2 compared with peptide 1) |
| --- | --- | --- |
| GLFEAIEGFIENGWEGMIDGWYG [peptide 1] | damages red blood cells | – |
| GLFEAIEGFIENGWEGLAEALAEALEALAAGGSC (Peptide 2) [Peptide derived from Influenza virus hemagglutinin, used as endosome destabilizing agent] | damages red blood cells | more efficacious than peptide 1 |
